Data: PMC5218480 (PLoS ONE, 2017)

Tested on: MV-4-11 cells
Test: Gene expression microarray analysis (Affymetrix PrimeView) and GSEA
Format: cell-based, human
Design: RFU PODN (11730768_x_at) / Fold change /veh PODN (11730768_x_at) / RFU LINC00158 (11744669_a_at) / Fold change /veh LINC00158 (11744669_a_at) / RFU DUSP10 (11751237_a_at) / Fold change /veh DUSP10 (11751237_a_at) / RFU ID3 (11757404_x_at) / Fold change /veh ID3 (11757404_x_at) / RFU PLEKHG5 (11737974_s_at) / Fold change /veh PLEKHG5 (11737974_s_at) / RFU LRRC4B (11730491_at) / Fold change /veh LRRC4B (11730491_at) / RFU GIMAP4 (11747438_a_at) / Fold change /veh GIMAP4 (11747438_a_at) / RFU KRT8 (11758183_x_at) / Fold change /veh KRT8 (11758183_x_at) / RFU CNN1 (11734310_a_at) / Fold change /veh CNN1 (11734310_a_at) / RFU VPS37D (11726825_at) / Fold change /veh VPS37D (11726825_at) / RFU C10orf10 (11716522_x_at) / Fold change /veh C10orf10 (11716522_x_at) / RFU KIR2DL2 /// KIR2DL4 /// KIR2DL5A /// KIR2DL5B /// KIR2DS1 /// KIR2DS2 /// KIR2DS3 /// KIR2DS4 /// KIR3DL3 /// KIR3DL3 /// KIR3DS1 (11738374_at) / Fold change /veh KIR2DL2 /// KIR2DL4 /// KIR2DL5A /// KIR2DL5B /// KIR2DS1 /// KIR2DS2 /// KIR2DS3 /// KIR2DS4 /// KIR3DL3 /// KIR3DL3 /// KIR3DS1 (11738374_at) / RFU C1QL1 (11718748_at) / Fold change /veh C1QL1 (11718748_at) / RFU TMPRSS4 (11747572_a_at) / Fold change /veh TMPRSS4 (11747572_a_at) / RFU HAMP (11756126_x_at) / Fold change /veh HAMP (11756126_x_at) / RFU RNFT2 (11725882_a_at) / Fold change /veh RNFT2 (11725882_a_at) / RFU NR4A2 (11747474_a_at) / Fold change /veh NR4A2 (11747474_a_at) / RFU ABCC12 (11746883_a_at) / Fold change /veh ABCC12 (11746883_a_at) / RFU TMEM136 (11760407_x_at) / Fold change /veh TMEM136 (11760407_x_at) / RFU CLDN22 /// WWC2 (11732394_at) / Fold change /veh CLDN22 /// WWC2 (11732394_at) / RFU HLA-DPB1 (11760878_x_at) / Fold change /veh HLA-DPB1 (11760878_x_at) / RFU SPINT1 (11716480_a_at) / Fold change /veh SPINT1 (11716480_a_at) / RFU GAP43 (11754022_s_at) / Fold change /veh GAP43 (11754022_s_at) / RFU A4GNT (11735810_at) / Fold change /veh A4GNT (11735810_at) / RFU PRB3 (11715151_x_at) / Fold change /veh PRB3 (11715151_x_at) / RFU TUBB4B (11761932_at) / Fold change /veh TUBB4B (11761932_at) / RFU CAPN14 (11732068_a_at) / Fold change /veh CAPN14 (11732068_a_at) / RFU TMCC2 (11721928_a_at) / Fold change /veh TMCC2 (11721928_a_at) / RFU IRGQ (11745062_a_at) / Fold change /veh IRGQ (11745062_a_at) / RFU FAM174B (11720279_a_at) / Fold change /veh FAM174B (11720279_a_at) / RFU TMPRSS4 (11748680_a_at) / Fold change /veh TMPRSS4 (11748680_a_at) / RFU FAM212B (11763350_a_at) / Fold change /veh FAM212B (11763350_a_at) / RFU PLEKHG5 (11743358_a_at) / Fold change /veh PLEKHG5 (11743358_a_at) / RFU ZSCAN30 (11745921_a_at) / Fold change /veh ZSCAN30 (11745921_a_at) / RFU CMKLR1 (11741424_a_at) / Fold change /veh CMKLR1 (11741424_a_at) / RFU LOC101060620 /// MAPK8IP1 (11723275_at) / Fold change /veh LOC101060620 /// MAPK8IP1 (11723275_at) / RFU SPTSSB (11747773_x_at) / Fold change /veh SPTSSB (11747773_x_at) / RFU PRSS12 (11739890_at) / Fold change /veh PRSS12 (11739890_at) / RFU BIN1 (11741810_x_at) / Fold change /veh BIN1 (11741810_x_at) / RFU WNT11 (11732464_a_at) / Fold change /veh WNT11 (11732464_a_at) / RFU C10orf10 (11716521_a_at) / Fold change /veh C10orf10 (11716521_a_at) / RFU C5orf56 (11738089_at) / Fold change /veh C5orf56 (11738089_at) / RFU CYB561 (11721691_x_at) / Fold change /veh CYB561 (11721691_x_at) / RFU ANKRD19P (11752326_a_at) / Fold change /veh ANKRD19P (11752326_a_at) / RFU OR2T12 /// OR2T33 /// OR2T8 (11738714_s_at) / Fold change /veh OR2T12 /// OR2T33 /// OR2T8 (11738714_s_at) / RFU VCAN (11748164_a_at) / Fold change /veh VCAN (11748164_a_at) / RFU JSRP1 (11732532_at) / Fold change /veh JSRP1 (11732532_at) / RFU KRTAP10-11 (11738290_x_at) / Fold change /veh KRTAP10-11 (11738290_x_at) / RFU MYO3A (11730013_a_at) / Fold change /veh MYO3A (11730013_a_at) / RFU EBF3 (11725865_a_at) / Fold change /veh EBF3 (11725865_a_at) / RFU CAMK2N1 (11719241_x_at) / Fold change /veh CAMK2N1 (11719241_x_at) / RFU C5orf56 (11738088_a_at) / Fold change /veh C5orf56 (11738088_a_at) / RFU OLFML3 (11715873_a_at) / Fold change /veh OLFML3 (11715873_a_at) / RFU LOC100653217 /// NTM (11731650_a_at) / Fold change /veh LOC100653217 /// NTM (11731650_a_at) / RFU MAPK11 (11762145_a_at) / Fold change /veh MAPK11 (11762145_a_at) / RFU FIZ1 (11724087_x_at) / Fold change /veh FIZ1 (11724087_x_at) / RFU OASL (11726364_x_at) / Fold change /veh OASL (11726364_x_at) / RFU SOX15 (11748057_x_at) / Fold change /veh SOX15 (11748057_x_at) / RFU CD79A (11719716_a_at) / Fold change /veh CD79A (11719716_a_at) / RFU HIST1H1D (11736915_at) / Fold change /veh HIST1H1D (11736915_at) / RFU CASKIN2 (11723855_a_at) / Fold change /veh CASKIN2 (11723855_a_at) / RFU LOC730098 (11760151_x_at) / Fold change /veh LOC730098 (11760151_x_at) / RFU OR4N2 (11742367_at) / Fold change /veh OR4N2 (11742367_at) / RFU PRRT2 (11749266_a_at) / Fold change /veh PRRT2 (11749266_a_at) / RFU SNX32 (11753110_a_at) / Fold change /veh SNX32 (11753110_a_at) / RFU CDHR5 (11726645_a_at) / Fold change /veh CDHR5 (11726645_a_at) / RFU RCAN1 (11760418_a_at) / Fold change /veh RCAN1 (11760418_a_at) / RFU FAM167A (11723789_a_at) / Fold change /veh FAM167A (11723789_a_at) / RFU FAM26E (11764081_at) / Fold change /veh FAM26E (11764081_at) / RFU ISYNA1 (11749810_s_at) / Fold change /veh ISYNA1 (11749810_s_at) / RFU ACY1 (11761880_at) / Fold change /veh ACY1 (11761880_at) / RFU 11764098_at / Fold change /veh 11764098_at / RFU SAMD14 (11745864_x_at) / Fold change /veh SAMD14 (11745864_x_at) / RFU NPB (11741838_a_at) / Fold change /veh NPB (11741838_a_at) / RFU TMPRSS6 (11731388_a_at) / Fold change /veh TMPRSS6 (11731388_a_at) / RFU KRTAP10-2 (11738614_at) / Fold change /veh KRTAP10-2 (11738614_at) / RFU ARHGAP8 /// PRR5-ARHGAP8 (11727945_x_at) / Fold change /veh ARHGAP8 /// PRR5-ARHGAP8 (11727945_x_at) / RFU KRTAP5-7 /// NADSYN1 (11734609_at) / Fold change /veh KRTAP5-7 /// NADSYN1 (11734609_at) / RFU RASL12 (11751679_a_at) / Fold change /veh RASL12 (11751679_a_at) / RFU CDKN2B (11736163_a_at) / Fold change /veh CDKN2B (11736163_a_at) / RFU PRF1 (11729649_at) / Fold change /veh PRF1 (11729649_at) / RFU, ZNF638 /// ZNF638-IT1 / Fold change vs veh, ZNF638 /// ZNF638-IT1 / RFU, PANK3 / Fold change vs veh, PANK3 / RFU, SH3YL1 / Fold change vs veh, SH3YL1 / RFU, ZEB2 / Fold change vs veh, ZEB2 / RFU, NRIP1 / Fold change vs veh, NRIP1 / RFU, PTTG1IP / Fold change vs veh, PTTG1IP / RFU, CAPN2 / Fold change vs veh, CAPN2 / RFU, MED14 / Fold change vs veh, MED14 / RFU, SNORA58 / Fold change vs veh, SNORA58 / RFU, C1orf63 / Fold change vs veh, C1orf63 / RFU, LRRFIP1 / Fold change vs veh, LRRFIP1 / RFU, NDUFAF7 / Fold change vs veh, NDUFAF7 / RFU, SLC12A2 / Fold change vs veh, SLC12A2 / RFU, IBTK / Fold change vs veh, IBTK / RFU, ESF1 / Fold change vs veh, ESF1 / Fold change vs veh, TMEM50B / RFU, TAOK1 / Fold change vs veh, TAOK1 / RFU, ACBD3 / Fold change vs veh, ACBD3 / RFU, TMA16 / Fold change vs veh, TMA16 / RFU, RWDD3 / Fold change vs veh, RWDD3 / RFU, BCAT1 / Fold change vs veh, BCAT1 / RFU, EDEM3 / Fold change vs veh, EDEM3 / RFU, TMEM33 / Fold change vs veh, TMEM33 / RFU, WDR75 / Fold change vs veh, WDR75 / RFU, AHCTF1 / Fold change vs veh, AHCTF1 / RFU, TFRC / Fold change vs veh, TFRC / RFU, ZDHHC17 / Fold change vs veh, ZDHHC17 / RFU, NOM1 / Fold change vs veh, NOM1 / RFU, ARL8B / Fold change vs veh, ARL8B / RFU, ZBTB11 / Fold change vs veh, ZBTB11 / RFU, TAMM41 / Fold change vs veh, TAMM41 / RFU, KIAA1704 /// LOC100996395 / Fold change vs veh, KIAA1704 /// LOC100996395 / RFU, ING1 / Fold change vs veh, ING1 / RFU, TRMT61B / Fold change vs veh, TRMT61B / RFU, FUBP3 / Fold change vs veh, FUBP3 / RFU, TP53 / Fold change vs veh, TP53 / RFU, TNKS2 / Fold change vs veh, TNKS2 / RFU, ZFP14 / Fold change vs veh, ZFP14 / RFU, ACTR2 / Fold change vs veh, ACTR2 / RFU, PPP3R1 / Fold change vs veh, PPP3R1 / RFU, PIK3R1 / Fold change vs veh, PIK3R1 / RFU, HNRNPA1 / Fold change vs veh, HNRNPA1 / RFU, RNF170 / Fold change vs veh, RNF170 / RFU, ZNF28 / Fold change vs veh, ZNF28 / RFU, RNGTT / Fold change vs veh, RNGTT / RFU, OGT / Fold change vs veh, OGT / RFU, BRD1 / Fold change vs veh, BRD1 / RFU, MARS / Fold change vs veh, MARS / RFU, ZNF655 / Fold change vs veh, ZNF655 / RFU, FAHD1 / Fold change vs veh, FAHD1 / RFU, BDP1 / Fold change vs veh, BDP1 / RFU, LRRCC1 / Fold change vs veh, LRRCC1 / RFU, ARID1A / Fold change vs veh, ARID1A / RFU, ZNF146 / Fold change vs veh, ZNF146 / RFU, ZNF330 / Fold change vs veh, ZNF330 / RFU, GPN3 / Fold change vs veh, GPN3 / RFU, C9orf123 / Fold change vs veh, C9orf123 / RFU, N4BP2L2 / Fold change vs veh, N4BP2L2 / RFU, ARFIP1 / Fold change vs veh, ARFIP1 / RFU, FAM179B / Fold change vs veh, FAM179B / RFU, BCL10 / Fold change vs veh, BCL10 / RFU, UHRF1BP1L / Fold change vs veh, UHRF1BP1L / RFU, BET1 / Fold change vs veh, BET1 / RFU, CNOT2 / Fold change vs veh, CNOT2 / RFU, ZNF268 / Fold change vs veh, ZNF268 / Fold change vs veh, ZNF507 / RFU, DGCR2 / Fold change vs veh, DGCR2 / RFU, WDSUB1 / Fold change vs veh, WDSUB1 / Fold change vs veh, HSP90B1 /// MIR3652 / RFU, ADSS / Fold change vs veh, ADSS / RFU, GK / Fold change vs veh, GK / RFU, ZNF148 / Fold change vs veh, ZNF148 / RFU, TAF9 / Fold change vs veh, TAF9 / RFU, SLC1A5 / Fold change vs veh, SLC1A5 / RFU, SLMO2 / Fold change vs veh, SLMO2 / RFU, ABCC4 / Fold change vs veh, ABCC4 / RFU, LOC101060439 /// RAP1B / Fold change vs veh, LOC101060439 /// RAP1B / RFU, RFX7 / Fold change vs veh, RFX7 / RFU, GTPBP10 / Fold change vs veh, GTPBP10 / RFU, CNEP1R1 / Fold change vs veh, CNEP1R1 / RFU, BIVM-ERCC5 /// ERCC5 / Fold change vs veh, BIVM-ERCC5 /// ERCC5 / RFU, ILF3 / Fold change vs veh, ILF3 / RFU 11762660_at / Fold change /veh 11762660_at / RFU VCAN (11757783_s_at) / Fold change /veh VCAN (11757783_s_at) / RFU DDX43 (11728927_at) / Fold change /veh DDX43 (11728927_at) / RFU KRT8 (11758188_x_at) / Fold change /veh KRT8 (11758188_x_at) / RFU NKD1 (11759106_at) / Fold change /veh NKD1 (11759106_at) / RFU SRD5A1 (11742802_a_at) / Fold change /veh SRD5A1 (11742802_a_at) / RFU TPSAB1 /// TPSB2 (11721975_s_at) / Fold change /veh TPSAB1 /// TPSB2 (11721975_s_at) / RFU GSTM3 (11746129_a_at) / Fold change /veh GSTM3 (11746129_a_at) / RFU IL23R (11737362_x_at) / Fold change /veh IL23R (11737362_x_at) / RFU TMEM51 (11727254_a_at) / Fold change /veh TMEM51 (11727254_a_at) / RFU PIWIL2 (11732686_x_at) / Fold change /veh PIWIL2 (11732686_x_at) / RFU ORM1 (11744905_x_at) / Fold change /veh ORM1 (11744905_x_at) / RFU CCDC152 (11743942_at) / Fold change /veh CCDC152 (11743942_at) / RFU ECM1 (11717891_a_at) / Fold change /veh ECM1 (11717891_a_at) / RFU IL23R (11748794_a_at) / Fold change /veh IL23R (11748794_a_at) / RFU TNFAIP8L3 (11732012_x_at) / Fold change /veh TNFAIP8L3 (11732012_x_at) / RFU MBOAT4 (11741988_at) / Fold change /veh MBOAT4 (11741988_at) / RFU 11764193_at / Fold change /veh 11764193_at / RFU TMEM53 (11763286_at) / Fold change /veh TMEM53 (11763286_at) / RFU MAGEB2 (11727129_at) / Fold change /veh MAGEB2 (11727129_at) / RFU TMEM200A (11744735_a_at) / Fold change /veh TMEM200A (11744735_a_at) / RFU CCDC152 (11751479_a_at) / Fold change /veh CCDC152 (11751479_a_at) / RFU FAM211A (11726209_a_at) / Fold change /veh FAM211A (11726209_a_at) / RFU RGS16 (11746705_a_at) / Fold change /veh RGS16 (11746705_a_at) / RFU VCAN (11755009_s_at) / Fold change /veh VCAN (11755009_s_at) / RFU RHOB (11743442_s_at) / Fold change /veh RHOB (11743442_s_at) / RFU RGS16 (11720943_a_at) / Fold change /veh RGS16 (11720943_a_at) / RFU RGS16 (11720944_at) / Fold change /veh RGS16 (11720944_at) / RFU, VPS4B / Fold change vs veh, VPS4B / RFU, CREB1 / Fold change vs veh, CREB1 / RFU, DNAJC13 / Fold change vs veh, DNAJC13 / RFU, GNAQ / Fold change vs veh, GNAQ / RFU, CDK5R1 / Fold change vs veh, CDK5R1 / RFU, ZRANB3 / Fold change vs veh, ZRANB3 / RFU, CUL4A / Fold change vs veh, CUL4A / RFU, CCNY / Fold change vs veh, CCNY / RFU, UFL1 / Fold change vs veh, UFL1 / RFU, COG3 / Fold change vs veh, COG3 / RFU, DIAPH2 / Fold change vs veh, DIAPH2 / RFU, SKA2 / Fold change vs veh, SKA2 / RFU, AFF3 / Fold change vs veh, AFF3 / RFU, LMF1 / Fold change vs veh, LMF1 / RFU, IPO11 / Fold change vs veh, IPO11 / RFU, DFFB / Fold change vs veh, DFFB / RFU, FOXP1 / Fold change vs veh, FOXP1 / RFU, CARD8 / Fold change vs veh, CARD8 / RFU, STRN3 / Fold change vs veh, STRN3 / RFU, ADK / Fold change vs veh, ADK / RFU, RASSF2 / Fold change vs veh, RASSF2 / RFU, WIPF1 / Fold change vs veh, WIPF1 / RFU, LARP1B / Fold change vs veh, LARP1B / RFU, RASA1 / Fold change vs veh, RASA1 / RFU, RB1 / Fold change vs veh, RB1 / RFU, PPFIA1 / Fold change vs veh, PPFIA1 / RFU, MAT2A / Fold change vs veh, MAT2A / RFU, CCT5 / Fold change vs veh, CCT5 / RFU, WDR92 / Fold change vs veh, WDR92 / RFU, CUX1 / Fold change vs veh, CUX1 / RFU, TTC7A / Fold change vs veh, TTC7A / RFU, TMEM135 / Fold change vs veh, TMEM135 / RFU, DEPTOR / Fold change vs veh, DEPTOR / RFU, CPM / Fold change vs veh, CPM / RFU, DNAJB6 / Fold change vs veh, DNAJB6 / RFU, CACNA2D3 / Fold change vs veh, CACNA2D3 / RFU, DTX4 / Fold change vs veh, DTX4 / RFU, TFCP2 / Fold change vs veh, TFCP2 / RFU, GMCL1 /// GMCL1P1 / Fold change vs veh, GMCL1 /// GMCL1P1 / RFU, AEBP2 / Fold change vs veh, AEBP2 / RFU, SNHG1 /// SNORD22 /// SNORD25 /// SNORD26 /// SNORD27 /// SNORD28 /// SNORD29 /// SNORD31 / Fold change vs veh, SNHG1 /// SNORD22 /// SNORD25 /// SNORD26 /// SNORD27 /// SNORD28 /// SNORD29 /// SNORD31 / Fold change (Aza/veh), C12orf56 (ProbeSet 11735607_a_at) / Fold change (ACY-1035/veh), C12orf56 (ProbeSet 11735607_a_at) / Fold change (Aza/veh), FGFR1OP (ProbeSet 11751329_s_at) / Fold change (ACY-1035/veh), FGFR1OP (ProbeSet 11751329_s_at) / Fold change (Aza/veh), VPS36 (ProbeSet 11739960_a_at) / Fold change (ACY-1035/veh), VPS36 (ProbeSet 11739960_a_at) / RFU SYPL1 (11715823_x_at) / Fold change /veh SYPL1 (11715823_x_at) / RFU IGFBP7 (11715501_s_at) / Fold change /veh IGFBP7 (11715501_s_at) / RFU REEP3 (11722064_at) / Fold change /veh REEP3 (11722064_at) / RFU IGLL1 (11728026_x_at) / Fold change /veh IGLL1 (11728026_x_at): dose or concentration left out as unconfirmed
Conditions: ProbeSet 11716891_at; LIST B

Nc1ccc(-c2cccs2)cc1NC(=O)c1ccc2c(c1)cc(C1CC1)n2CCN1CCOCC1 [ACY-1035]
RFU, C9orf123: 39.54 RFU
